# Results taken from ChEMBL document CHEMBL1123104, “Enzyme-activated irreversible inhibitors of monoamine oxidase: phenylallylamine structure-activity relationships” (J Med Chem, 1985).
# pIC50: −log10 of the molar value.
# Molecular target: T1, Monoamine oxidase (Rattus norvegicus, UniProt P19643+P21396)
# T1 sequence (P19643 whole entry): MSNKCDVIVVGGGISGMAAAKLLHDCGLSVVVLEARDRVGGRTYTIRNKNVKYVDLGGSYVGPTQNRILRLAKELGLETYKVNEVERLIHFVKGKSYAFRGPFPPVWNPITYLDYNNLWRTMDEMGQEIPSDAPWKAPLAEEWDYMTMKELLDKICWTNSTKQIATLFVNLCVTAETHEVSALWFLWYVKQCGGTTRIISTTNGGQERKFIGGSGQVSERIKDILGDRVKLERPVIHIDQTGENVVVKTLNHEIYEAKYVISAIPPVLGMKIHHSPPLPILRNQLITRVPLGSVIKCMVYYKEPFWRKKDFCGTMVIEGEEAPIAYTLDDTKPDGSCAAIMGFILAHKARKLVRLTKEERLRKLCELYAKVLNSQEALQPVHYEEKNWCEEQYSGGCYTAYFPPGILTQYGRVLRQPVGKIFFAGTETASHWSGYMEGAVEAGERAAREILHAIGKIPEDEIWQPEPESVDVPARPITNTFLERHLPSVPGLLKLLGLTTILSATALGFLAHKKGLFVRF
# T1 sequence (P21396 whole entry): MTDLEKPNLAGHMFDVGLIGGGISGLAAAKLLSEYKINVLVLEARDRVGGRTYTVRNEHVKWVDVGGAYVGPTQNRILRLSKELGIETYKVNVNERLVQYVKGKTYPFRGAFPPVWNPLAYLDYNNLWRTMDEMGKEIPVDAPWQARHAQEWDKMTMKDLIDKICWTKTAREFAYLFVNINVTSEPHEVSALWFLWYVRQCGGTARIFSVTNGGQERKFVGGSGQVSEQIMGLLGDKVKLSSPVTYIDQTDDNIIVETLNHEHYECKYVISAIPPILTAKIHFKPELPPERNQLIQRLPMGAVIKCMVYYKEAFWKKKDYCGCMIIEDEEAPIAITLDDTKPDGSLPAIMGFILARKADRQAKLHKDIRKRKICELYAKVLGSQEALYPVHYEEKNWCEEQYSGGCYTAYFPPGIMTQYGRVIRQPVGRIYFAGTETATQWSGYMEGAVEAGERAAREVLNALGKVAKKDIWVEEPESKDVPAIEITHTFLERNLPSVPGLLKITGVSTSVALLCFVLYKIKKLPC
# Assay: Inhibitory activity against rat brain mitochondrial Monoamine oxidase
SMILES,IC50,pIC50
C=C(CN)c1ccccc1.Cl,400000 nM,
C=CCN [ALLYLAMINE],500000 nM,
COc1cccc(/C(=C\F)CN)c1.Cl,5 nM,
Cl.NCC(=C(Br)Br)c1ccccc1,500000 nM,
Cl.NC/C(=C/Br)c1ccccc1,40000 nM,
Cl.NC/C(=C/Cl)c1ccccc1,100000 nM,
Cl.NCC(=C(F)F)c1ccccc1,10000 nM,
COc1ccc(/C(=C\F)CN)cc1OC.Cl,,7.60
Cl.NC/C(=C\F)c1ccccc1,150 nM,
Cl.NC/C(=C/F)c1cccc(O)c1,50 nM,
Cl.NC/C(=C/F)c1ccc(O)c(O)c1,100 nM,
Cl.NC/C(=C/F)c1cccc(C(F)(F)F)c1,7 nM,
Cl.NC/C(=C/F)c1ccccc1,18 nM,
Cl.NC/C(=C\Cl)c1ccccc1,500000 nM,
Cl.NC/C(=C/F)c1ccc(Cl)cc1,20 nM,
COc1ccccc1/C(=C\F)CN.Cl,,7.60
Cc1ccc(/C(=C\F)CN)cc1.Cl,10 nM,
